From ChEMBL document CHEMBL4261551, “Click chemistry-assisted synthesis of triazolo linked podophyllotoxin conjugates as tubulin polymerization inhibitors” (Medchemcomm, 2017)
Active and inactive are the calls of the source. The calls are words filed in the database; no cut-off is given here.

Assays:
HeLa [1] = test: Induction of apoptosis in human HeLa cells assessed as caspase-3 activation at 0.5 uM after 48 hrs by fluorimetric method relative to control; format: functional
HT-29 = test: Cytotoxicity against human HT-29 cells after 48 hrs by MTT assay; format: functional, cell-based; settings: HT-29, 48 h
HeLa [2] = test: cells; settings: Homo sapiens, 48 h
Description: Cytotoxicity against human HeLa cells after 48 hrs by MTT assay

B16 = test: Cytotoxicity against […] cells after 48 hrs by MTT assay; format: functional, cell-based; settings: Mus musculus, B16, 48 h
Sus scrofa = species: Sus scrofa; test: Inhibition of porcine brain tubulin polymerization at 3 uM after 1 hr by fluorescence assay relative to control
MCF7 = test: cells; settings: Homo sapiens, MCF7, 48 h
Description: Cytotoxicity against human MCF7 cells after 48 hrs by MTT assay

Tubulin (Homo sapiens) = Tubulin (Homo sapiens) (UniProt P68371+Q9H4B7+P0DPH7+P68366+Q13509+Q71U36+P04350+Q3ZCM7+P07437+P68363+Q9BQE3+Q6PEY2+Q13885+Q9BVA1+Q9BUF5); test: Inhibition of tubulin polymerization in human HeLa cells assessed as disrupted microtubule organization at 0.5 uM after 48 hrs by immunohistochemical analysis; format: cell-based
HeLa [3] = test: Cell cycle arrest in human HeLa cells assessed as accumulation at sub-G1 phase at 0.5 uM after 48 hrs by propidium iodide staining based flow cytometry (reference value: 0.9%); format: functional
HeLa [4] = test: Cell cycle arrest in human HeLa cells assessed as accumulation at G1 phase at 0.5 uM after 48 hrs by propidium iodide staining based flow cytometry (reference value: 62.5%); format: functional
HeLa [5] = test: Induction of apoptosis in human HeLa cells assessed as nuclear fragmentation at 0.5 uM after 48 hrs by Hoechst 33342 staining based fluorescent microscopic method; format: functional, cell-based
HeLa [6] = test: Cell cycle arrest in human HeLa cells assessed as accumulation at S phase at 0.5 uM after 48 hrs by propidium iodide staining based flow cytometry (reference value: 11.3%); format: functional
HeLa [7] = test: Cell cycle arrest in human HeLa cells assessed as accumulation at G2/M phase at 0.5 uM after 48 hrs by propidium iodide staining based flow cytometry (reference value: 19.3%); format: functional
HeLa [8] = test: Induction of apoptosis in human HeLa cells assessed as […] condensation at 0.5 uM after 48 hrs by Hoechst 33342 staining based fluorescent microscopic method; format: functional, cell-based

Row | Structure (SMILES) | Activity (HeLa [1]) | IC50 (HT-29) [µM] | IC50 (HeLa [2]) [µM] | IC50 (B16) [µM] | inhibition (Sus scrofa) [%] | IC50 (MCF7) [µM] | fold change (FC) (HeLa [1]) | inhibition (Tubulin (Homo sapiens)) | Activity (HeLa [3]) [%] | Activity (HeLa [4]) [%] | Activity (HeLa [5]) | Activity (HeLa [6]) [%] | Activity (HeLa [7]) [%] | Activity (HeLa [8])
1 | COc1cc([C@@H]2c3cc4c(cc3[C@H](O)[C@H]3COC(=O)[C@H]23)OCO4)cc(OC)c1OC [PODOFILOX] | Active | 1.26 | 2.36 | 2.12 | 50.2 | 3.75 |  |  |  |  |  |  |  | 
2 | COc1cc([C@@H]2c3cc4c(cc3[C@@H](NC(=O)Cn3cc(-c5ccc(C(C)(C)C)cc5)nn3)[C@H]3COC(=O)[C@H]23)OCO4)cc(OC)c1OC |  | 18.6 | 0.9 | 10.6 | 46.4 | 11.3 | 4 - 6 | Active | 0.2 | 12.5 | Active | 10.1 | 63.3 | Active
3 | COc1cc([C@@H]2c3cc4c(cc3[C@@H](NC(=O)Cn3cc(-c5cncn5C)nn3)[C@H]3COC(=O)[C@H]23)OCO4)cc(OC)c1OC |  | 10.6 | 2.3 | 10.8 |  | 22.4 |  |  |  |  |  |  |  | 
4 | COc1cc([C@@H]2c3cc4c(cc3[C@@H](NC(=O)Cn3cc(-c5cccc(N)c5)nn3)[C@H]3COC(=O)[C@H]23)OCO4)cc(OC)c1OC |  | 15.6 | 25.4 | 22.5 |  | 21.9 |  |  |  |  |  |  |  | 
5 | COc1ccc(-c2cn(CC(=O)N[C@@H]3c4cc5c(cc4[C@@H](c4cc(OC)c(OC)c(OC)c4)[C@H]4C(=O)OC[C@@H]43)OCO5)nn2)cc1OC |  | 13.9 | 17.9 | 22.4 |  | 15.8 |  |  |  |  |  |  |  | 
6 | COc1cc([C@@H]2c3cc4c(cc3[C@@H](NC(=O)Cn3cc(-c5cccc(Cl)c5)nn3)[C@H]3COC(=O)[C@H]23)OCO4)cc(OC)c1OC |  | 17.5 | 28.4 | 23.6 |  | 38.2 |  |  |  |  |  |  |  | 
7 | COc1cc([C@@H]2c3cc4c(cc3[C@@H](O[C@@H]3O[C@@H]5CO[C@@H](C)O[C@H]5[C@H](O)[C@H]3O)[C@H]3COC(=O)[C@H]23)OCO4)cc(OC)c1O [ETOPOSIDE] |  | 1.98 | 2.24 | 1.85 |  | 1.36 |  |  |  |  |  |  |  | 
8 | COc1cc([C@@H]2c3cc4c(cc3[C@@H](NC(=O)Cn3cc(-c5ccccc5)nn3)[C@H]3COC(=O)[C@H]23)OCO4)cc(OC)c1OC |  | 20.1 | 19.6 | 21.5 |  | 8.1 |  |  |  |  |  |  |  | 
9 | COc1cc([C@@H]2c3cc4c(cc3[C@@H](NC(=O)Cn3cc(CCC5C(=O)c6ccccc6C5=O)nn3)[C@H]3COC(=O)[C@H]23)OCO4)cc(OC)c1OC |  | 18.5 | 2.6 | 14.7 |  | 7.2 |  |  |  |  |  |  |  | 
10 | COc1cc([C@@H]2c3cc4c(cc3[C@@H](NC(=O)Cn3cc(-c5cccs5)nn3)[C@H]3COC(=O)[C@H]23)OCO4)cc(OC)c1OC |  | 19.5 | 6.5 | 18.2 |  | 8.9 |  |  |  |  |  |  |  | 
11 | COc1cc([C@@H]2c3cc4c(cc3[C@@H](NC(=O)Cn3cc(-c5ccc(Br)cc5)nn3)[C@H]3COC(=O)[C@H]23)OCO4)cc(OC)c1OC |  | 0.1 | 0.07 | 10.1 | 48.5 | 0.9 | 4 - 6 | Active | 0.1 | 13.9 | Active | 10.5 | 62.7 | Active
12 | COc1ccc2cc(-c3cn(CC(=O)N[C@@H]4c5cc6c(cc5[C@@H](c5cc(OC)c(OC)c(OC)c5)[C@H]5C(=O)OC[C@@H]54)OCO6)nn3)ccc2c1 |  | 13.6 | 15.4 | 14.3 |  | 6.9 |  |  |  |  |  |  |  | 
13 | COc1cc([C@@H]2c3cc4c(cc3[C@@H](NC(=O)Cn3cc(-c5ccc(C)cc5)nn3)[C@H]3COC(=O)[C@H]23)OCO4)cc(OC)c1OC |  | 22.5 | 16.8 | 23.5 |  | 17.1 |  |  |  |  |  |  |  | 
14 | COc1cc([C@@H]2c3cc4c(cc3[C@@H](NC(=O)Cn3cc(-c5ccccn5)nn3)[C@H]3COC(=O)[C@H]23)OCO4)cc(OC)c1OC |  | 18.4 | 23.6 | 19.5 |  | 14.5 |  |  |  |  |  |  |  | 
